According to ChEMBL document CHEMBL5321210, “N-adamantyl-anthranil amide derivatives: New selective ligands for the cannabinoid receptor subtype 2 (CB2R)” (Eur J Med Chem, 2023):
Calls of active or inactive are those of the source. The calls are words filed in the database; no cut-off is given here.

Legend:
[1] = target: T1, Cannabinoid receptor 2 (Homo sapiens, UniProt P34972); test: Displacement of [3H]-CP55940 from human CB2 receptor expressed in HEK293 cell membrane at 1 uM incubated for 90 mins by radioligand competition binding assay relative to control; assay type: cell membranes
T1 sequence (P34972 whole entry): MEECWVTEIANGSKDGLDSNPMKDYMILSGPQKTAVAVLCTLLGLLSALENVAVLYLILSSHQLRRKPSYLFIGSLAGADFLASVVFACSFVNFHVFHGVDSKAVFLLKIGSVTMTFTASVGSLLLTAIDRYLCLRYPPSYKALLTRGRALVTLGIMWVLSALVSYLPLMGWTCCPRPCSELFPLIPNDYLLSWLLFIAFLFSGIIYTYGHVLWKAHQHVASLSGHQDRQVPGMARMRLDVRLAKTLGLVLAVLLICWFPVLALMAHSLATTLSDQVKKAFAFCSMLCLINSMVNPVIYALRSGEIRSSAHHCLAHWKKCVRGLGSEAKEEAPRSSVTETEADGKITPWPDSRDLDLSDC

[2] = target: T2, Cannabinoid receptor 1 (Homo sapiens, UniProt P21554); test: Displacement of [3H]-CP55940 from human CB1 receptor expressed in HEK293 cell membrane at 1 uM incubated for 60 mins by radioligand competition binding assay relative to control; assay type: cell membranes
T2 sequence (P21554 whole entry): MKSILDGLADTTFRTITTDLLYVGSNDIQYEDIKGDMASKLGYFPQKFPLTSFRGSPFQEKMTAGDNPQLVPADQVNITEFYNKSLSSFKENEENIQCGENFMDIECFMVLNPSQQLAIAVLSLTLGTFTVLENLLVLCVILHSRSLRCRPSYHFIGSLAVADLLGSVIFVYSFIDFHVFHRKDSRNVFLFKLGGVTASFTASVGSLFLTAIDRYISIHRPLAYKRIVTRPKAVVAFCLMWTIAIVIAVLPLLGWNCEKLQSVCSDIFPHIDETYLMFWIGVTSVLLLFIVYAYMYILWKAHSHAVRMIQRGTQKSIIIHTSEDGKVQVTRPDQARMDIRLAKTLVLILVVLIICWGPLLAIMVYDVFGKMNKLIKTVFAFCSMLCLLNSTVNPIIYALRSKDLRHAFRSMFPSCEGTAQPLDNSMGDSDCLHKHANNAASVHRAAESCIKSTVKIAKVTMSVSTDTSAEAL

[3] = target: T1, Cannabinoid receptor 2; test: Displacement of [3H]-CP55940 from human CB2 receptor expressed in HEK293 cell membrane assessed as inhibition constant incubated for 90 mins by radioligand competition binding assay; assay type: cell membranes
[4] = test system: THP-1; test: Antiinflammatory activity against LPS-activated PMA-differentiated human THP-1 macrophages assessed as increase in IL-4 production at 10 uM incubated for 24 hrs by ELISA coupled qRT-PCR analysis; assay type: functional, cell-based
[5] = test system: THP-1; test: Antiinflammatory activity against LPS-activated PMA-differentiated human THP-1 macrophages assessed as decrease in IFN-gamma production at 1 to 10 uM incubated for 24 hrs by ELISA coupled qRT-PCR analysis; assay type: functional, cell-based; settings: dose 1-10 µM
[6] = test system: THP-1; test: Antiinflammatory activity in PMA-differentiated human THP-1 macrophages assessed as decrease in IFN-gamma production at 1 to 10 uM incubated for 24 hrs by ELISA coupled qRT-PCR analysis; assay type: functional, cell-based; settings: dose 1-10 µM
[7] = test system: THP-1; test: Antiinflammatory activity against LPS-activated human THP-1 monocytes assessed as decrease in IL-6 production at 1 to 10 uM incubated for 24 hrs by ELISA coupled qRT-PCR analysis; assay type: functional, cell-based; settings: dose 1-10 µM
[8] = test system: THP-1; test: Antiinflammatory activity in human THP-1 monocytes assessed as decrease in IL-6 production at 1 to 10 uM incubated for 24 hrs by ELISA coupled qRT-PCR analysis; assay type: functional, cell-based; settings: dose 1-10 µM
[9] = test system: THP-1; test: Antiinflammatory activity in PMA-differentiated human THP-1 macrophages assessed as decrease in IL-6 production at 1 to 10 uM incubated for 24 hrs by ELISA coupled qRT-PCR analysis; assay type: functional, cell-based; settings: dose 1-10 µM
[10] = test system: THP-1; test: Antiinflammatory activity in human THP-1 monocytes assessed as decrease in IL-1beta production at 1 to 10 uM incubated for 24 hrs by ELISA coupled qRT-PCR analysis; assay type: functional, cell-based; settings: dose 1-10 µM
[11] = test system: THP-1; test: Antiinflammatory activity against LPS-activated human THP-1 monocytes assessed as decrease in IL-1beta production at 1 to 10 uM incubated for 24 hrs by ELISA coupled qRT-PCR analysis; assay type: functional, cell-based; settings: dose 1-10 µM
[12] = test system: THP-1; test: Antiinflammatory activity against LPS-activated human THP-1 monocytes assessed as decrease in IFN-gamma production at 1 to 10 uM incubated for 24 hrs by ELISA coupled qRT-PCR analysis; assay type: functional, cell-based; settings: dose 1-10 µM
[13] = test system: THP-1; test: Antiinflammatory activity against LPS-activated human THP-1 monocytes assessed as decrease in TNF-alpha production at 1 to 10 uM incubated for 24 hrs by ELISA coupled qRT-PCR analysis; assay type: functional, cell-based; settings: dose 1-10 µM
[14] = test system: THP-1; test: Antiinflammatory activity in PMA-differentiated human THP-1 macrophages assessed as increase in IL-4 production at 1 to 10 uM incubated for 24 hrs by ELISA coupled qRT-PCR analysis; assay type: functional, cell-based; settings: dose 1-10 µM
[15] = test system: THP-1; test: Antiinflammatory activity in PMA-differentiated human THP-1 macrophages assessed as decrease in TNF-alpha production at 1 to 10 uM incubated for 24 hrs by ELISA coupled qRT-PCR analysis; assay type: functional, cell-based; settings: dose 1-10 µM
[16] = test system: THP-1; test: Antiinflammatory activity against LPS-activated PMA-differentiated human THP-1 macrophages assessed as decrease in TNF-alpha production at 1 to 10 uM incubated for 24 hrs by ELISA coupled qRT-PCR analysis; assay type: functional, cell-based; settings: dose 1-10 µM
[17] = test system: THP-1; test: Antiinflammatory activity against LPS-activated human THP-1 monocytes assessed as increase in IL-4 production at 1 to 10 uM incubated for 24 hrs by ELISA coupled qRT-PCR analysis; assay type: functional, cell-based; settings: dose 1-10 µM
[18] = test system: THP-1; test: Antiinflammatory activity against LPS-activated PMA-differentiated human THP-1 macrophages assessed as increase in IL-10 production at 10 uM incubated for 24 hrs by ELISA coupled qRT-PCR analysis; assay type: functional, cell-based
[19] = test system: THP-1; test: Antiinflammatory activity in human THP-1 monocytes assessed as increase in IL-4 production at 1 to 10 uM incubated for 24 hrs by ELISA coupled qRT-PCR analysis; assay type: functional, cell-based; settings: dose 1-10 µM
[20] = test system: THP-1; test: Antiinflammatory activity against LPS-activated human THP-1 monocytes assessed as increase in IL-10 production at 1 to 10 uM incubated for 24 hrs by ELISA coupled qRT-PCR analysis; assay type: functional, cell-based; settings: dose 1-10 µM
[21] = test system: THP-1; test: Antiinflammatory activity in PMA-differentiated human THP-1 macrophages assessed as increase in IL-10 production at 1 to 10 uM incubated for 24 hrs by ELISA coupled qRT-PCR analysis; assay type: functional, cell-based; settings: dose 1-10 µM
[22] = test system: THP-1; test: Antiinflammatory activity against LPS-activated PMA-differentiated human THP-1 macrophages assessed as decrease in IL-6 production at 1 to 10 uM incubated for 24 hrs by ELISA coupled qRT-PCR analysis; assay type: functional, cell-based; settings: dose 1-10 µM
[23] = test system: THP-1; test: Antiinflammatory activity in human THP-1 monocytes assessed as increase in IL-10 production at 1 to 10 uM incubated for 24 hrs by ELISA coupled qRT-PCR analysis; assay type: functional, cell-based; settings: dose 1-10 µM
[24] = test system: THP-1; test: Antiinflammatory activity in human THP-1 monocytes assessed as decrease in TNF-alpha production at 1 to 10 uM incubated for 24 hrs by ELISA coupled qRT-PCR analysis; assay type: functional, cell-based; settings: dose 1-10 µM
[25] = test system: THP-1; test: Antiinflammatory activity against LPS-activated PMA-differentiated human THP-1 macrophages assessed as decrease in IL-1beta production at 1 to 10 uM incubated for 24 hrs by ELISA coupled qRT-PCR analysis; assay type: functional, cell-based; settings: dose 1-10 µM
[26] = target: T1, Cannabinoid receptor 2; test: Antagonist activity at human CB2 receptor expressed in CHO-K1 cells assessed as reversal of JWH-133 mediated cAMP reduction preincubated with compound for 15 mins followed by JWH-133 addition and measured after 30 mins in the presence of NKH-477 by luminescence based analysis; assay type: functional, cell-based; settings: filed as antagonist, time 45.0 min
[27] = test system: THP-1; test: Antiinflammatory activity in PMA-differentiated human THP-1 macrophages assessed as decrease in IL-1beta production at 1 to 10 uM incubated for 24 hrs by ELISA coupled qRT-PCR analysis; assay type: functional, cell-based; settings: dose 1-10 µM
[28] = test system: THP-1; test: Antiinflammatory activity in human THP-1 monocytes assessed as decrease in IFN-gamma production at 1 to 10 uM incubated for 24 hrs by ELISA coupled qRT-PCR analysis; assay type: functional, cell-based; settings: dose 1-10 µM
[29] = target: T2, Cannabinoid receptor 1; test: Displacement of [3H]-CP55940 from human CB1 receptor expressed in HEK293 cell membrane assessed as inhibition constant incubated for 60 mins by radioligand competition binding assay; assay type: cell membranes
[30] = target: T1, Cannabinoid receptor 2; test: Agonist activity at human CB2 receptor expressed in CHO-K1 cells assessed as inhibition of NKH-477 induced cAMP production incubated for 30 mins by luminescence based analysis; assay type: functional, cell-based
[31] = target: T1, Cannabinoid receptor 2; test: Agonist activity at human CB2 receptor expressed in CHO-K1 cells assessed as inhibition of NKH-477 induced cAMP production by measuring maximal efficacy incubated for 30 mins by luminescence based analysis relative to control; assay type: functional, cell-based; settings: filed as agonist

CCCCCNc1ccc(-c2ccc(C(N)=O)cc2)cc1C(=O)NC12CC3CC(CC(C3)C1)C2
Activity [1]: 19%
Activity [2]: 14%

CCCCCNc1ccc(-c2cccs2)cc1C(=O)NC12CC3CC(CC(C3)C1)C2
Activity [2]: 15%
Ki [3]: 2600 nM

CCCCCNc1ccc(-c2ccc(C)cc2)cc1C(=O)NC12CC3CC(CC(C3)C1)C2
Activity [2]: 16%
Ki [3]: 129 nM

CCCCCNc1ccc(-c2cccc(C(N)=O)c2)cc1C(=O)NC12CC3CC(CC(C3)C1)C2
Activity [1]: 21%
Activity [2]: 3%

CCCCCNc1ccc(-c2ccccc2)cc1C(=O)NC12CC3CC(CC(C3)C1)C2
Activity [4]: inactive
Activity [5]: inactive
Activity [6]: inactive
Activity [7]: inactive
Activity [8]: inactive
Activity [9]: inactive
Activity [10]: inactive
Activity [11]: inactive
Activity [12]: inactive
Activity [13]: inactive
Activity [14]: inactive
Activity [15]: inactive
Activity [16]: inactive
Activity [17]: inactive
Activity [18]: inactive
Activity [19]: inactive
Activity [20]: inactive
Activity [21]: inactive
Activity [22]: inactive
Activity [2]: 5%
Activity [23]: inactive
Activity [24]: inactive
Activity [25]: inactive
Activity [26]: Active
Activity [27]: inactive
Activity [28]: inactive
Ki [3]: 47.8 nM

CCCCCNc1ccc(-c2ccccc2)cc1C(=O)NC1CCCCC1
Activity [1]: 21%
Activity [2]: 3%

CCCCCCCNc1ccc(-c2cccnc2)cc1C(=O)NC12CC3CC(CC(C3)C1)C2
Activity [1]: 31%
Activity [2]: 16%

CCCCCNc1ccc(-c2ccc(F)cc2)cc1C(=O)NC12CC3CC(CC(C3)C1)C2
Ki [29]: 754 nM
Ki [3]: 89.5 nM

CCCCCNc1ccc(-c2cccc(OC)c2)cc1C(=O)NC12CC3CC(CC(C3)C1)C2
Activity [1]: 25%
Activity [2]: 28%

Cc1c(C(=O)NC23CC4CC(CC(C4)C2)C3)nn(CCCCCO)c1-c1ccccc1
Ki ([3]; hek293): 0.08 nM

CCCCCCNc1ccc(-c2cccnc2)cc1C(=O)NC12CC3CC(CC(C3)C1)C2
Activity [2]: 9%
Ki [3]: 6500 nM

CCCCCNc1ccc(Br)cc1C(=O)NC12CC3CC(CC(C3)C1)C2
Activity [2]: 5%
Ki [3]: 456 nM

CCCC(C)(C)c1ccc2c(c1)OC(C)(C)[C@@H]1CC=C(C)C[C@@H]21
EC50 [30]: 169000 nM

CCCCCCNc1ccc(Br)cc1C(=O)NC12CC3CC(CC(C3)C1)C2
Activity [1]: 26%
Activity [2]: 17%

CCCCCCNc1ccc(-c2ccccc2)cc1C(=O)NC12CC3CC(CC(C3)C1)C2
Activity [2]: 35%
Ki [3]: 209 nM

CCCCCNc1ccc(-c2cccc(F)c2)cc1C(=O)NC12CC3CC(CC(C3)C1)C2
EC50 [30]: 5250 nM
Activity ([2]; filed as agonist): 42%
Emax [31]: 86.6%
Ki [3]: 71 nM

CCCCCCCNc1ccc(-c2cccs2)cc1C(=O)NC12CC3CC(CC(C3)C1)C2
EC50 [30]: 5600 nM
Activity [2]: 7%
Emax [31]: 75%
Ki [3]: 160 nM

CCCCCNc1ccc(-c2ccc(OC)cc2)cc1C(=O)NC12CC3CC(CC(C3)C1)C2
Activity [2]: 23%
Ki [3]: 148 nM

CCCCCNc1ccc(-c2cccnc2)cc1C(=O)NC12CC3CC(CC(C3)C1)C2
EC50 [30]: 10400 nM
Activity [2]: 1%
Emax [31]: 98.1%
Ki [3]: 330 nM

CCCCCCCNc1ccccc1C(=O)NC12CC3CC(CC(C3)C1)C2
Activity [2]: 4%
Ki [3]: 923 nM

CCCCCCCNc1ccc(Br)cc1C(=O)NC12CC3CC(CC(C3)C1)C2
Activity [1]: 16%
Activity [2]: 8%

CCCCCNc1ccc(-c2cccc(C)c2)cc1C(=O)NC12CC3CC(CC(C3)C1)C2
Activity [1]: 37%
Activity [2]: 14%

COc1ccc2c(c1)c(CCN1CCOCC1)c(C)n2C(=O)c1cccc(Cl)c1Cl
Ki [3]: 6.9 nM

CCCCCCNc1ccc(-c2cccs2)cc1C(=O)NC12CC3CC(CC(C3)C1)C2
Activity [2]: 32%
Ki [3]: 465 nM

CCCCCCCNc1ccc(-c2ccccc2)cc1C(=O)NC12CC3CC(CC(C3)C1)C2
Activity [2]: 22%
Ki [3]: 1180 nM

CCCCCCNc1ccccc1C(=O)NC12CC3CC(CC(C3)C1)C2
Activity [2]: 6%
Ki [3]: 485 nM

CCCCCNc1ccc(-c2ccc(C(=O)OC)cc2)cc1C(=O)NC12CC3CC(CC(C3)C1)C2
Activity [1]: 12%
Activity [2]: 6%
